Columns and labels:
HTLV-III = assay: Anti-AIDS activity, infected cell rate of MT-4 cells infected with HTLV-III at 6th day; type: cell-based; details: for anti-AIDS virus activity: MT-4 cells, HTLV-III
Experimental: To MT-4 cells (30×10^4 /ml) cultured in RPMI-1640 medium containing 10% bovine serum, was inoculated HTLV-III, and the suspension was incubated at 37° C. for 1 hour to cause the adsorption of the virus. The cell:virus ratio was 500:1. The cells were then washed, and cultured with or without various doses of the test substances (same as those of Example 1) at 37° C. under 5% CO2 for 3 days, after which cell growth, viability, and percentage of infected cells were recorded. The infected cells were distinguished from the uninfected cells by indirect immuno-fluorescence method. Thus; the cultured cells were fixed with cold methanol on a slide glass, reacted with antibody to the HTLV-III-specific antigens, and further with the secondary antibody (having fluorescent label). The results are shown in FIGS. 9-29, wherein, , and show the controls without virus; , and show the infection experiments with HTLV-III. The cell growth is indicated in number of cells, the viability (%) in number of viable cells×100/number of total cells, and the infected cell rate (%) in number of fluorescent-positive cells×100/number of total cells.
In order to examine the correlation between the anti-AIDS virus activity and the molecular structure (especially, molecular weight and S-content or number of sulfate group in this case) of various test substances including those used in Examples 1-7, the anti-AIDS activities were evaluated for the various naturally occurring polysaccharides, polysaccharides having sulfate group, mucopolysaccharides, mucopolysaccharide sulfate, and mucopolysaccharide polysulfate. Further, similar experiments were carried out with various other sulfates which were synthetically obtained. The experimental procedures employed are identical to that in preceding experiments. The cultured MT-4 cells were infected with HTLV-III and the inhibitory effects of various test subsutances on the infected cell rate (number of fluorescent cell×100/ total cell, %) were determined at 6th day.

[1] = tested on: Friend leukemia virus (F-MuLV); assay: Anti-Friend leukemia virus activity, XC-plaque assay, Procedure 1; type: cell-based; details: for Number of plagues per dish: control 168
Experimental: (§1) Anti-FMuLV activity of dextram sulfate (molecular weight: 7000-8000, S-content: 17-20%) was determined by a XC-plaque assay method. BALB3T3 cells were cultured in adhesive form in a 35 mm-dish at 5×10^4 cells/dish (2 ml). After removing the culture medium, a fresh medium with or without indicating concentrations of the test substance (1 ml each) and 0.2 ml of the virus preparation were charged, and the cells were cultured overnight. On the following day, the culture media were replaced with those (2 ml) containing or not containing the above substances, the incubation was continued for three additional days to progress the infection and replication of the virus. After the removal of the medium, the further progression of viral replication was stopped by UV irradiation. To this dish, the suspension of XC-cells (2 ml) was added and cultured for three days and the plaque formation produced by the virus particle induced cell-fusion, was observed.

[2] = tested on: Friend leukemia virus (F-MuLV); assay: Anti-Friend leukemia virus activity, XC-plaque assay, Procedure 2; type: cell-based; details: for Number of plaques per dish: control 35
Experimental: as §1
Procedure 1 was repeated except that after adsorption of the virus in the medium without DS, the non-adsorbed viruses were removed and the culture was carried out in the medium (2 ml) containing or not containing DS.

MT-4 cells = assay: Cytotoxicity, proliferation and viability of MT-4 cells without virus; type: cell-based, human; details: no virus
Experimental: MT-4 cells were cultured with or without 1-100 μg/ml of each test substance which is the same as in Example 1 and 3 and the proliferation and viability of cells were recorded.
Without the virus, MT-4 cells were cultured in the same manner as in Example 4 except the test sample was heparin, and proliferation and viability of cells were recorded.

[3] = 10 μg/ml, 6th day, control 100%
[4] = 100 μg/ml, 6th day, control 100%
[5] = 10 μg/ml, 6th day, control 100%, 8640 min
[6] = 100 μg/ml, 6th day, control 100%, 8640 min
[7] = 1000 μg/ml, 6th day, control 100%

`O=C[C@H](O)[C@@H](O)[C@H](O)[C@H](O)COS(=O)(=O)O` [Glucose-6-sulfate] showed an Infected cell rate (% of total cells) at 10 µg/mL (HTLV-III; Human immunodeficiency virus 1, MT4, 144 h, 10 μg/ml, 6th day, control 100%) of 100%, an Infected cell rate (% of total cells) at 100 µg/mL (HTLV-III; Human immunodeficiency virus 1, MT4, 144 h, 100 μg/ml, 6th day, control 100%) of 100% and an Infected cell rate (% of total cells) at 1000 µg/mL (HTLV-III; Human immunodeficiency virus 1, MT4, 144 h, 1000 μg/ml, 6th day, control 100%) of 100%.

In the case of `OC[C@H]1O[C@H](OC[C@H]2O[C@H](O[C@]3(CO)O[C@H](CO)[C@@H](O)[C@@H]3O)[C@H](O)[C@@H](O)[C@@H]2O)[C@H](O)[C@@H](O)[C@H]1O` [raffinose], the anti-AIDS virus activity (HTLV-III; 6th day) is reported as “neither methylcellulose showed any anti-AIDS virus activities”.

For .iota.-Carrageenan, the “Infected cell (%)” value (HTLV-III; [3]) was 100% and the “Infected cell (%)” value (HTLV-III; [4]) was 31%.

With Agarose the “Infected cell (%)” value (HTLV-III; [3]) was 100% and the “Infected cell (%)” value (HTLV-III; [4]) was 100%.

Alginic acid was tested, and the “Infected cell (%)” value (HTLV-III; [3]) was 100% and the “Infected cell (%)” value (HTLV-III; [4]) was 100%.

With Alginic acid sulfate the “Infected cell (%)” value (HTLV-III; [3]) was 7%, the “Infected cell (%)” value (HTLV-III; [4]) was 4% and the anti-AIDS virus activity (HTLV-III; 6th day) was “particularly strong anti-AIDS virus activities”.

For Chitin, the “Infected cell (%)” value (HTLV-III; [3]) was 100% and the “Infected cell (%)” value (HTLV-III; [4]) was 100%.

Chitin sulfate was tested, and the “Infected cell (%)” value (HTLV-III; [3]) was 100% and the “Infected cell (%)” value (HTLV-III; [4]) was 81%.

With Chitosan the “Infected cell (%)” value (HTLV-III; [3]) was 100% and the “Infected cell (%)” value (HTLV-III; [4]) was 100%.

Chitosan sulfate was tested, and the “Infected cell (%)” value (HTLV-III; [3]) was 1%, the “Infected cell (%)” value (HTLV-III; [4]) was 1% and the anti-AIDS virus activity (HTLV-III; 6th day) was “particularly strong anti-AIDS virus activities”.

With Chondroitin the “Infected cell (%)” value (HTLV-III; [3]) was 100% and the “Infected cell (%)” value (HTLV-III; [4]) was 100%.

For Chondroitin-4-sulfate, the “Infected cell (%)” value (HTLV-III; [3]) was 90% and the “Infected cell (%)” value (HTLV-III; [4]) was 80%.

Chondroitin-4-sulfate polysulfate was tested, and the “Infected cell (%)” value (HTLV-III; [3]) was 2%, the “Infected cell (%)” value (HTLV-III; [4]) was 1% and the anti-AIDS virus activity (HTLV-III; 6th day) was “particularly strong anti-AIDS virus activities”.

Chondroitin-6-sulfate was tested, and the “Infected cell (%)” value (HTLV-III; [3]) was 100% and the “Infected cell (%)” value (HTLV-III; [4]) was 100%.

Chondroitin-6-sulfate polysulfate was tested, and the “Infected cell (%)” value (HTLV-III; [3]) was 2%, the “Infected cell (%)” value (HTLV-III; [4]) was 1% and the anti-AIDS virus activity (HTLV-III; 6th day) was “particularly strong anti-AIDS virus activities”.

With Dermatan sulfate the “Infected cell (%)” value (HTLV-III; [3]) was 100% and the “Infected cell (%)” value (HTLV-III; [4]) was 80%.

“Dextran [Dextran (molecular weight 9,000)]” was tested, and the “Infected cell (%)” value (HTLV-III; [3]) was 100% and the “Infected cell (%)” value (HTLV-III; [4]) was 100%.

For “Dextran sulfate [Dextran sulfate (molecular weight 3,500, S-content 6)]”, the “Infected cell (%)” value (HTLV-III; [5]) was 100%, the “Infected cell (%)” value (HTLV-III; [6]) was 82% and the “Infected cell (%)” value (HTLV-III; [7]) was 1%.

With “Dextran sulfate [Dextran sulfate (molecular weight 8,000, S-content ≈14)]” the “Infected cell (%)” value (HTLV-III; [5]) was 25% and the “Infected cell (%)” value (HTLV-III; [6]) was 0%.

Fucoidin was tested, and the “Infected cell (%)” value (HTLV-III; [3]) was 32% and the “Infected cell (%)” value (HTLV-III; [4]) was 1%.

With Glucose-polysulfate the “Infected cell (%)” value (HTLV-III; [3]) was 100%, the “Infected cell (%)” value (HTLV-III; [4]) was 100% and the “Infected cell (%)” value (HTLV-III; [7]) was 100%.

Heparitin sulfate was tested, and the “Infected cell (%)” value (HTLV-III; [3]) was 100% and the “Infected cell (%)” value (HTLV-III; [4]) was 90%.

For Hyaluronic acid, the “Infected cell (%)” value (HTLV-III; [3]) was 100% and the “Infected cell (%)” value (HTLV-III; [4]) was 100%.

Hyaluronic acid sulfate was tested, and the “Infected cell (%)” value (HTLV-III; [3]) was 100% and the “Infected cell (%)” value (HTLV-III; [4]) was 70%.

Keratan sulfate was tested, and the “Infected cell (%)” value (HTLV-III; [3]) was 100% and the “Infected cell (%)” value (HTLV-III; [4]) was 60%.

N--acetylglucosamine polysulfate was tested, and the “Infected cell (%)” value (HTLV-III; [3]) was 100%, the “Infected cell (%)” value (HTLV-III; [4]) was 100% and the “Infected cell (%)” value (HTLV-III; [7]) was 100%.

In the case of Sodium dextran sulfate, the plaque formation ([1]; 100 μg/ml of DS) is reported as “not detected”, the “inhibition of the formation of plaque” value ([1]; 1-100 μg/ml) is reported as at least 90% and the Inhibition ([1]; DS 1 μg/ml) is reported as 92%. The “Number of plagues per dish” value ([1]; DS 1 μg/ml) was 14, the Inhibition ([1]; DS 5 μg/ml) was 93% and the “Number of plagues per dish” value ([1]; DS 5 μg/ml) was 12. For the same compound, the Inhibition ([1]; DS 10 μg/ml) was 93%, the “Number of plagues per dish” value ([1]; DS 10 μg/ml) was 11 and the Inhibition ([1]; DS 50 μg/ml) was 92%. The “Number of plagues per dish” value ([1]; DS 50 μg/ml) was 13, the Inhibition ([1]; DS 100 μg/ml) was 96% and the “Number of plagues per dish” value ([1]; DS 100 μg/ml) was 6. The Inhibition ([1]; DS 1000 μg/ml) was 100%, the “Number of plagues per dish” value ([1]; DS 1000 μg/ml) was 0 and the Inhibition ([2]; DS 0.01 μg/ml) was 6%. For the same compound, the “Number of plaques per dish” value ([2]; DS 0.01 μg/ml) was 33, the Inhibition ([2]; DS 0.1 μg/ml) was 45% and the “Number of plaques per dish” value ([2]; DS 0.1 μg/ml) was 19. The “Number of plaques per dish” value ([2]; DS 1 μg/ml) was 14, the Inhibition ([2]; DS 10 μg/ml) was 52% and the “Number of plaques per dish” value ([2]; DS 10 μg/ml) was 17. For the same compound, the Inhibition ([2]; DS 100 μg/ml) was 54%, the “Number of plaques per dish” value ([2]; DS 100 μg/ml) was 16 and the “Number of plaques per dish” value ([2]; DS 500 μg/ml) was 0.

“Sodium dextran sulfate [Sodium dextran sulfate (molecular weight: 500,000 S-content:]” was tested, and the “Infected cell (%)” value (HTLV-III; 10 μg/ml, 6th day; control 100%; S-content ≈16), 8640 min) was 20% and the “Infected cell (%)” value (HTLV-III; [4]) was 0%.

“Sodium dextran sulfate [Sodium dextran sulfate (molecular weight: 5000, S-content: 1]” was tested, and the “Infected cell (%)” value (HTLV-III; 10 μg/ml, 6th day; control 100%; S-content ≈13), 8640 min) was 18%, the “Infected cell (%)” value (HTLV-III; [4]) was 0% and the Cell number (MT-4 cells; 1 μg/ml) was 123 × 10^4 cells/ml. The Cell number (MT-4 cells; 10 μg/ml) was 127 × 10^4 cells/ml, the Viability (MT-4 cells; 10 μg/ml) was 92% and the Cell number (MT-4 cells; 100 μg/ml) was 121 × 10^4 cells/ml. It also gave a Viability (MT-4 cells; 100 μg/ml) of 93%.

In the case of colominic acid, the anti-AIDS virus activity (HTLV-III; 6th day) is reported as “neither methylcellulose showed any anti-AIDS virus activities”.

dextran sulfate was tested, and the anti-AIDS virus activity (HTLV-III; 6th day) was “particularly strong anti-AIDS virus activities”.

inulin was tested, and the anti-AIDS virus activity (HTLV-III; 6th day) was “neither methylcellulose showed any anti-AIDS virus activities”.

In the case of methylcellulose, the anti-AIDS virus activity (HTLV-III; 6th day) is reported as “neither methylcellulose showed any anti-AIDS virus activities”.

With pectin the anti-AIDS virus activity (HTLV-III; 6th day) was “neither methylcellulose showed any anti-AIDS virus activities”.

With “κ-carrageenan [Carrageenan 20%enan 80% + λ]” the “Infected cell (%)” value (HTLV-III; [3]) was 95% and the “Infected cell (%)” value (HTLV-III; [4]) was 1%.

For λ-Carrageenan, the “Infected cell (%)” value (HTLV-III; [3]) was 3%, the “Infected cell (%)” value (HTLV-III; [4]) was 1% and the anti-AIDS virus activity (HTLV-III; 6th day) was “particularly strong anti-AIDS virus activities”.

— patent publication US4840941A, “Method for inhibiting infection of human T-cells” (Kabushiki Kaisha Ueno Seiyaku Oyo Kenkyujo, priority 1986, dated 1989)
